Counter-ions that a name gives are not always drawn. Like-named read-outs stand apart in the source and are kept apart here.

One test has as its target T1, PAF receptor (Oryctolagus cuniculus, UniProt G1TEI7).
T1 construct: Cell membrane fraction of rabbit platelets was prepared; from tissue; host or cells: rabbit platelets (cell membrane fraction)
The experiment in a line: Binding test using [3H]-PAF (PAF receptor binding test). Details: species or system rabbit. As to conditions: rabbit platelet membrane fraction, [3H]-PAF 0.4 nM, 25°C, 60 minutes; read-out: Receptor Binding Inhibition IC50 (converted).

The target of a further test is rabbit platelets (Oryctolagus cuniculus, UniProt G1TEI7). Put plainly: in vitro platelet agglutination inhibition test (PAF-induced). As to conditions: rabbit platelet-rich plasma, PAF final concentration 10 ng/ml, 37°C. It is filed as cell-based.
Chain of rabbit platelets (G1TEI7 1-342): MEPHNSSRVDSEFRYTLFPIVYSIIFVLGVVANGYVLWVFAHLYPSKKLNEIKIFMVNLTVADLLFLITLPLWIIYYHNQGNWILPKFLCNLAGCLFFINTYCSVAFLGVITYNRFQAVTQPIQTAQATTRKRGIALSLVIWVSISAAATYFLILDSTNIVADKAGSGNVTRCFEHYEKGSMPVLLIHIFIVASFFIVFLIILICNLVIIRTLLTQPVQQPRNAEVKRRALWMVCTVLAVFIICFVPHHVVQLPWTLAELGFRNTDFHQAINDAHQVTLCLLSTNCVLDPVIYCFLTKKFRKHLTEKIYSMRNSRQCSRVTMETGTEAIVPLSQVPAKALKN
Setting [1] is: read-out: PAF-Induced Platelet Aggregation IC50 (converted).

T1 sequence (G1TEI7 1-342): as above
Procedure for PAF receptor: Binding Test Using [^3H]-PAF (PAF receptor binding test)
Cell membrane fraction of rabbit platelets was prepared in accordance with the method by Hwang et al (Biochemistry; 22; 4756, (1983)). In 10 mM Tris buffer containing 0.25% bovine serum albumin, 50 mg of this membrane fraction was suspended and tritium-labelled PAF [^3H]-PAF; 0.4 nM) and a test compound were added thereto. After incubating the resulting mixture at 25°C for 60 minutes, the mixture was subjected to filtration through a filter paper made of glass fibers. The filter paper was washed with cold Tris buffer three times and then transferred to a vial. A scintillator was added thereto and the dose of radioactivity was measured with a liquid scintillation counter. The inhibition rate (binding ability) of the test compound was calculated according to the following equation and IC50 values were determined by interpolation. Inhibition Rate (%) = {1 - [((A - B))/((C - B))]} x 100 [formula] (wherein A represents amount bound in the presence of the compound, B represents amount bound by non-specific binding which is the dose of [^3H]-PAF bound radioactivity in the presence of 1 µM of PAF, and C represents total amount bound which is the dose of [^3H]-PAF bound radioactivity.
As a control agent, WEB2086 (Japanese Laid-open Patent Application (Kokai) No. 65-176591) disclosed as a PAF-antagonist was used.
Procedure for rabbit platelets: To determine the PAF-antagonizing property of the compounds, the PAF-induced agglutination of rabbit platelets in vitro is utilized. To obtain platelet-rich plasma (PRP), venous blood is taken from rabbit auricular vein into a plastic centrifugal tube containing 1.0% sodium citrate solution. The ratio of sodium citrate solution to blood is 1:10. The obtained citrate-containing blood is centrifuged at 70 x g (625 rpm) at room temperature for 20 minutes and the PRP in the upper layer is transferred to another plastic tube. The remaining lower layer is further centrifuged at 1500 x g (2800 rpm) for 10 minutes and the platelet poor plasma (PPP) in the upper layer is recovered. The platelet agglutination is measured by using aggregometer commercially available from Niko Bioscience, Inc. An aliquote of the PRP is poured into a cubette for measurement. Immediately thereafter, aspirin, creatinin phosphate and creatinin phosphokinase are added to final concentrations of 0.1 mM, 7 mM and 45 U/ml, respectively. Then a solution of a test compound is added and the resulting mixture is stirred at 37°C for 2 minutes. To the resultant, PAF (final concentration: 10 ng/ml) is added to induce platelet aggregation. The platelet aggregation rate is calculated from the relative maximum value in each aggregation curve taking the transmittance of PPP as the maximum aggregation (100% aggregation). Using the aggregation rate when physiological saline was added as a control, the inhibition rate which was the ratio of the aggregation rate when the test compound was added to the control was calculated and the IC50 values were determined by interpolation.

As to `Cc1nnc2n1-c1ccccc1N(CCCN1CCC(c3c[nH]c4ccc(F)cc34)CC1)C2` [Compound 57, 4,5-dihydro-1-methyl-5-[3-[4-(5-fluoro-3-indolyl)piperidin-1-yl]propyl] [1,2,4]triazolo[4,3-a]quinoxaline], the IC50 (usually the concentration needed to halve the response being measured) on PAF receptor is 2700 nM.
As for `COc1ccc(C(O)(c2ccc(OC)c(OC)c2)C2CCN(CCCN3Cc4nnc(C)n4-c4ccccc43)CC2)cc1OC` [Compound 138, 4,5-dihydro-1-methyl-5-[3-[4-[hydroxybis(3,4-dimethoxyphenyl)methyl]piperidin-1-yl]propyl] [1,2,4]triazolo[4,3-a]quinoxaline], the values for the IC50 on PAF receptor and at rabbit platelets (setting [1]) were 1170 nM and 1320 nM, respectively.
For `Cc1nnc2n1-c1ccccc1N(CCCN1CCC(=C(c3ccccc3)c3ccccc3)C1)C2` [Compound 85, 4,5-dihydro-1-methyl-5-[3-[3-(diphenylmethylene)pyrrolidin-1-yl]propyl][1,2,4]triazolo[4,3-a] quinoxaline], in that order: 238 nM and 3030 nM.
For `COc1cccc(C(O)(c2ccccc2)C2CCN(CCCN3Cc4nnc(C)n4-c4ccccc43)CC2)c1` (stereo not drawn) [Compound 133, 4,5-dihydro-1-methyl-5-[3-[4-[hydroxy(3-methoxyphenyl)phenylmethyl]piperidin-1-yl]propyl] [1,2,4]triazolo[4,3-a]quinoxaline], in that order: 32.5 nM and 120 nM.
For the compound `Cc1nnc2n1-c1ccccc1N(CCCN1CCC(=C3c4ccccc4C=Cc4ccccc43)CC1)C2` [Compound 78, 4,5-dihydro-1-methyl-5-[3-[4-(5H-dibenzo[a,d]cyclohepten-5-ylidene)piperidin-1-yl]propyl][1,2,4]triazolo[4,3-a] quinoxaline], the IC50 is 118 nM at PAF receptor and 4800 nM at rabbit platelets (setting [1]).
The matching figures for `Cc1nnc2n1-c1ccccc1N(CCCN1CCC(=C(c3ccccc3)c3ccc4ccccc4c3)CC1)C2` [Compound 163, 4,5-dihydro-1-methyl-5-[3-[4-[(2-naphthyl)phenylmethylene]piperidin-1-yl]propyl] [1,2,4]triazolo[4,3,a]quinoxaline]: 342 nM and 609 nM.
For `Cc1ccc2[nH]cc(C3CCN(CCCn4c5ccccc5n5c(C)nnc45)CC3)c2c1` [Compound 197, 3-methyl-9-[3-[4-(5-methyl-3-indolyl)piperidin-1-yl]propyl]-9H-[1,2,4]triazolo[4,3-a]benzimidazole], in that order: 75 nM and 586 nM.
The matching figures for `Cc1cccc(C(O)(c2cccc(C)c2)C2CCN(CCCN3Cc4nnc(C)n4-c4ccccc43)CC2)c1` [Compound 134, 4,5-dihydro-1-methyl-5-[3-[4-[hydroxybis(3-tolyl)methyl]piperidin-1-yl]propyl][1,2,4]triazolo[4,3-a]quinoxaline]: 9.58 nM and 97.8 nM.
Take `Cc1nnc2n1-c1ccccc1N(CCN1CCN(C(c3ccccc3)c3ccccc3)CC1)C2` [Compound 43, 4,5-dihydro-1-methyl-5-[3-[4-(diphenylmethyl)piperazin-1-yl]ethyl][1,2,4]triazolo[4,3-a]quinoxaline fumaric acid salt]: the IC50 on PAF receptor was 6460 nM.
Consider `Cc1nnc2n1-c1ccc(Cl)cc1N(CCCN1CCC(c3c[nH]c4ccccc34)CC1)C2` [Compound 65, 7-chloro-4,5-dihydro-1-methyl-5-[3-[4-(3-indolyl)piperidin-1-yl]propyl][1,2,4]triazolo[4,3-a]quinoxaline], for which the IC50 was 10400 nM on PAF receptor and 4340 nM at rabbit platelets (setting [1]).
Consider `Cc1ccc2[nH]cc(C3CCN(CCCN4Cc5nnc(C)n5-c5ccccc54)CC3)c2c1` [Compound 58, 4,5-dihydro-1-methyl-5-[3-[4-(5-methyl-3-indolyl)piperidin-1-yl]propyl] [1,2,4]triazolo[4,3-a]quinoxaline], for which, on PAF receptor, the IC50 was 636 nM.
On the same count and under the same terms, the figure for `Cc1nnc2n1-c1ccccc1N(CCCN1CCC(c3c[nH]c4ccc(Br)cc34)CC1)C2` [Compound 56, 4,5-dihydro-1-methyl-5-[3-[4-(5-bromo-3-indolyl)piperidin-1-yl]propyl] [1,2,4]triazolo[4,3-a]quinoxaline] is 950 nM; for `Cc1nnc2n1-c1ccccc1N(CCCN1CCN(C(c3ccccc3)c3ccccc3)CC1)C2` [Compound 44, 4,5-dihydro-1-methyl-5-[3-[4-(diphenylmethyl)piperazin-1-yl]propyl][1,2,4]triazolo[4,3-a]quinoxaline] it is 1670 nM; for `Cc1nnc2n1-c1ccccc1N(CCCN1CCC(OC(c3ccccc3)c3ccccc3)CC1)C2` [Compound 76, 4,5-dihydro-1-methyl-5-[3-[4-(diphenylmethoxy)piperidin-1-yl]propyl][1,2,4]triazolo[4,3-a] quinoxaline tartaric acid salt] it is 202 nM.
For `Cc1nnc2n1-c1ccc(F)cc1N(CCCN1CCC(c3c[nH]c4ccccc34)CC1)C2` [Compound 66, 7-fluoro-4,5-dihydro-1-methyl-5-[3-[4-(3-indolyl)piperidin-1-yl]propyl][1,2,4]triazolo[4,3-a]quinoxaline], the IC50 at rabbit platelets (setting [1]) was 4270 nM.
Consider `Cc1nnc2n1-c1ccccc1N(CCCN1CC=C(c3c[nH]c4ccccc34)CC1)C2` [Compound 63, 4,5-dihydro-1-methyl-5-[3-[1,2,3,6-tetrahydro-4-(3-indolyl)pyridin-1-yl]propyl] [1,2,4]triazolo[4,3-a]quinoxaline], for which the IC50 on rabbit platelets (read-out: PAF-Induced Platelet Aggregation IC50) was 10400 nM.
On to `CCc1nnc2n1-c1ccccc1N(CCCN1CCC(=C(c3ccccc3)c3ccccc3)CC1)C2` [Compound 92, 1-ethyl-4,5-dihydro-5-[3-[4-(diphenylmethylene)piperidin-1-yl]propyl][1,2,4]triazolo[4,3-a] quinoxaline], for which the IC50 at rabbit platelets (setting [1]) was 1350 nM.
`Cc1nnc2n1-c1ccccc1N(CCCN1CCN(C(c3ccccc3)c3ccc(Cl)cc3)CC1)C2` (stereo not drawn) [Compound 69, 4,5-dihydro-1-methyl-5-[3-[4-[(4-chlorophenyl)phenylmethyl]piperazin-1-yl]propyl][1,2,4]triazolo[4,3-a]quinoxaline]: the IC50 on PAF receptor is 702 nM.
As for `COc1ccc2[nH]cc(C3CCN(CCCN4Cc5nnc(C)n5-c5ccccc54)CC3)c2c1` [Compound 54, 4,5-dihydro-1-methyl-5-[3-[4-(5-methoxy-3-indolyl)piperidin-1-yl]propyl] [1,2,4]triazolo[4,3-a]quinoxaline], the IC50 at PAF receptor was 1160 nM.
Consider `Cc1nnc2n1-c1ccccc1N(CCCN1CCC(C(O)(c3ccccc3)c3ccccc3)CC1)C2` [Compound 74, 4,5-dihydro-1-methyl-5-[3-[4-(hydroxydiphenylmethyl)piperidin-1-yl]propyl][1,2,4]triazolo[4,3-a] quinoxaline tartaric acid salt], for which the IC50 on PAF receptor was 357 nM.
`Cc1nnc2n(CCN3CCN(C(c4ccccc4)c4ccccc4)CC3)c3ccccc3n12` [Compound 191, 3-methyl-9-[3-[4-(diphenylmethyl)piperazin-1-yl]ethyl]-9H-[1,2,4]triazolo[4,3-a]benzimidazole fumaric acid salt]: the IC50 at PAF receptor is 7100 nM.
For `Cc1nnc2n1-c1ccccc1N(CCCN1CCC(c3c[nH]c4ccc(Cl)cc34)CC1)C2` [Compound 55, 4,5-dihydro-1-methyl-5-[3-[4-(5-chloro-3-indolyl)piperidin-1-yl]propyl] [1,2,4]triazolo[4,3-a]quinoxaline], the IC50 at PAF receptor was 803 nM.

For the origin of these results see patent EP0536419B1, “TRICYCLIC TRIAZOLE DERIVATIVES, PRODUCTION AND USE THEREOF” (TORAY INDUSTRIES, INC., priority 1991, dated 1992).
